Where two headings read alike, the source gives them in different places.
Legend:
[1] = Viability of normal specimens (BM, CB, MPB), Annexin V/7-AAD; type: cell-based, human; settings: human; read-out: cell viability relative to untreated controls
Procedure: (§1) The cells were isolated and processed as described. […] All drug treatments were performed in triplicate. […] Total viable cell numbers were determined using a flow cytometric apoptosis assay as described. Briefly, after 18 h of treatment, specimens were labeled with anti-CD34-PE (Becton Dickinson, San Jose, Calif.) for 20 minutes. […] The total number of events collected was 100,000. The percent viable cells was defined as AnnexinV^neg/7-AAD^neg cells on total (ungated) cells and on gates set for CD34^+ populations. • [1] Jordan, C. T., et al., The interleukin-3 receptor alpha chain is a unique marker for human acute myelogenous leukemia stem cells. Leukemia, 2000. 14(10): p. […] Lansdorp, P. M. and W. Dragowska, Long-term erythropoiesis from constant numbers of CD34+ cells in serum-free cultures initiated with highly purified progenitor cells from human bone marrow. […] Guzman, M. L., et al., Nuclear factor-kappaB is constitutively activated in primitive human acute myelogenous leukemia cells. […] 98(8): p.

[2] = system: normal specimens (BM, CB, MPB); test: as above; type: cell-based, human; settings: normal specimens
Procedure: as §1

primary CLL specimens = test: Viability of primary CLL specimens, Annexin V/7-AAD; type: cell-based; settings: Homo sapiens, 24 h; read-out: mean viability relative to untreated controls
primary ALL specimens = test: Viability of primary ALL specimens, Annexin V/7-AAD; type: cell-based; settings: Homo sapiens, 24 h; read-out: mean viability relative to untreated controls
All other tumor lines = test: NCI-60 screen, other lines; type: cell-based; settings: Homo sapiens; NCI-60, non-hematologic lines; read-out: concentration up to which no growth inhibition was shown
Excerpt: (§2) In contrast the cell viability for normal specimens was 79.5% (n=13).

[3] = system: pro-caspases 3, 8 or PARP; test: Immunoblot for caspase-dependent apoptotic events; type: cell-based, human; settings: TDZD-8 treated cells, data not shown
Procedure: (§3) Immunoblots. Cells were prepared and analyzed as previously described.^35 Membrane fractions were prepared using mem-PER eukaryotic membrane protein extraction kit as per manufacturer's instructions (Pierce; Rockford, Ill.). Blots were probed with phospho-PKC (pan) (beta II; Ser660), phospho-PKCalpha/betaII (Thr638/641), total PKCα, PKCβ and FLT3 (Santa Cruz Biotechnology, Calif.), Caspase-3 (Cell Signaling technologies; Danvers, Mass.); caspase-8 and PARP (BD bioscience), cleaved PARP (abcam) or anti-actin (AC-15; Sigma) antibodies.

[4] = system: primary blast crisis CML (bcCML) specimens; test: Viability of primary bcCML specimens, Annexin V/7-AAD; type: cell-based; settings: Homo sapiens, 24 h; read-out: mean viability relative to untreated controls
AML progenitor cells = test: Methylcellulose colony assay, AML; type: cell-based, human; settings: 20 μM TDZD-8, 18 hours before plating, n=11
Procedure: Cells were then plated at 50,000 cells/ml in Methocult™ GF H4534 (1% methylcellulose in IMDM, 30% FBS, 1% BSA, 10^−4M 2-mercaptoethanol, 2 mM L-glutamine, 50 ng/ml rh stem cell factor, 10 ng/ml rh GM-CSF, 10 ng/ml rh IL-3-Stem Cell Technologies, Vancouver, B.C.) supplemented with 3 units/ml of erythropoietin and 50 ng/ml G-CSF (R&D Systems, Minneapolis, Minn.). Colonies were scored after 10-14 days of culture.

CD34+CD38− bcCML cells = type: cell-based; settings: Homo sapiens, 24 h
CD34+CD10− ALL cells = test: Viability of CD34+CD10− cells from ALL specimens; type: cell-based; settings: Homo sapiens, 24 h
[5] = system: Non-small cell lung cancer, 9 cell lines; test: NCI-60 screen; type: cell-based; settings: Homo sapiens
Excerpt: as §2

CCRF-CEM = test: NCI-60 screen; type: cell-based; settings: Homo sapiens
Excerpt: as §2

CNS cancer, 6 cell lines = test: NCI-60 screen; type: cell-based; settings: Homo sapiens
Excerpt: as §2

[6] = system: Ovarian cancer, 5 cell lines; test: NCI-60 screen; type: cell-based; settings: Homo sapiens
Excerpt: as §2

SR = test: NCI-60 screen; type: cell-based; settings: Homo sapiens
Excerpt: as §2

[7] = system: Renal cancer, 7 cell lines; test: NCI-60 screen; type: cell-based; settings: Homo sapiens
Excerpt: as §2

HL-60 = test: NCI-60 screen; type: cell-based; settings: Homo sapiens
Excerpt: as §2

[8] = system: Breast cancer, 7 cell lines; test: NCI-60 screen; type: cell-based; settings: Homo sapiens
Excerpt: as §2

RPMI-8226 = test: NCI-60 screen; type: cell-based; settings: Homo sapiens
Excerpt: as §2

Melanoma, 8 cell lines = test: NCI-60 screen; type: cell-based; settings: Homo sapiens
Excerpt: as §2

[9] = system: Colon cancer, 7 cell lines; test: NCI-60 screen; type: cell-based; settings: Homo sapiens
Excerpt: as §2

[10] = system: normal CB cells (hematopoietic stem cells); test: NOD/SCID xenotransplant engraftment of normal CB cells treated in culture; type: in vivo, human; settings: cells cultured 18 hours with 20 μM TDZD-8; n=3; NOD/SCID mice
Procedure: NOD/SCID (NOD.CB17-prdkdc scid/J) mice (Jackson Laboratories, Bar Harbor, Me.) were sub-lethally irradiated with 270 rad using a RadSource™ X-ray irradiator the day before transplantation. Cells to be assayed (AML or normal umbilical cord blood—CB) were injected via tail vein (5-10 million cells) in a final volume of 0.2 ml of PBS with 0.5% FBS. After 6-8 weeks, animals were sacrificed and BM was isolated.

PKC = settings: reported; cited from earlier work
[11] = system: primary AML, ALL and CLL specimens; test: Free thiol analysis by mBBr labeling, leukemia specimens; type: cell-based, human; settings: 20 μM TDZD-8, as early as 30 minutes after exposure
Procedure: C. […] Intracellular thiol levels were assessed by flow cytometry after labeling with 50 μM monobromobimane (molecular probes).

[12] = system: plasma membrane localized PKCα and β in primary CD34+ AML and ALL cells; test: Immunoblot of membrane fractions for PKCα and PKCβ; type: cell-based, human; settings: TDZD-8 for 1 hour
Procedure: as §3

CDK1/cyclin B = CDK1/cyclin B (Homo sapiens, UniProt P06493); settings: reported; cited from earlier work
CDK1/cyclin B, sequence (P06493 whole entry, species assumed): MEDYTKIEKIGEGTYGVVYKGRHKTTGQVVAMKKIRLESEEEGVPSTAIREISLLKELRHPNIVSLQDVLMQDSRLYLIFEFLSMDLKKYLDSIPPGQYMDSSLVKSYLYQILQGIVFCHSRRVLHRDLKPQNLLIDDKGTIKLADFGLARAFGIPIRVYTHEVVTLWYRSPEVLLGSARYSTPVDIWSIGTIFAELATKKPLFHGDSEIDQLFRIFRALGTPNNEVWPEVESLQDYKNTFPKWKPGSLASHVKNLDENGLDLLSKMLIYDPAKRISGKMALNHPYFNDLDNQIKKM
CDK1/cyclin B, sequence (P14635 whole entry partner, species assumed): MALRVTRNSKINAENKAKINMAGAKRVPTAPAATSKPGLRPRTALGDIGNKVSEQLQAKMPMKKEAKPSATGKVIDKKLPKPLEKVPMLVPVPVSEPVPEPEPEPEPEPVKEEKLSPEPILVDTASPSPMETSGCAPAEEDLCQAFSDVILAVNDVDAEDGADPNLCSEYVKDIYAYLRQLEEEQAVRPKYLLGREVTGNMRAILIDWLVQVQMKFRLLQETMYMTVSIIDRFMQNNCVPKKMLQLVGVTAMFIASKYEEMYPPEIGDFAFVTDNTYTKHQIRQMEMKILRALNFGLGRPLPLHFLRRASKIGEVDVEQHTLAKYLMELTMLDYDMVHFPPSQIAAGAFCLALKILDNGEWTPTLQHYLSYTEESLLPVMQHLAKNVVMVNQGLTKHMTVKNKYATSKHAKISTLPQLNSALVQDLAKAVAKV

[13] = read-out: Log10 GI50 (converted)

In the case of Cn1sc(=O)n(Cc2ccccc2)c1=O [TDZD-8, 4-benzyl-2-methyl-1,2,4-thiadiazolidine-3,5-dione], the viability at 24 h, 20 μM [1] is reported as 79.5%, the “Cytotoxic Normal” value [2] is reported as “No” and the viability at 20 µM (primary CLL specimens) is reported as 7.2%. For the same compound, the viability at 20 µM (primary ALL specimens) was 12.4%, the IC50 (All other tumor lines) was over 100 µM and the “cleavage of pro-caspases 3, 8 or PARP” value [3] was “no cleavage of pro-caspases 3, 8 or PARP was detected”. For the same compound, the viability at 20 µM [4] was 21.6%, the “CFU, normalized to untreated controls” value (AML progenitor cells) was 7.3% and the viability at 20 µM (CD34+CD38− bcCML cells) was 2.8%. It also gave a viability at 20 µM (CD34+CD10− ALL cells) of 22.3%, a GI50 ([5]; read-out: GI50) of over 100 µM and a GI50 [5, 13] of over 100 µM. It also gave a GI50 (CCRF-CEM; read-out: GI50) of 11.5 µM, a GI50 (CCRF-CEM; [13]) of 11.5 µM and a GI50 (CNS cancer, 6 cell lines; read-out: GI50) of over 100 µM. It also gave a GI50 (CNS cancer, 6 cell lines; [13]) of over 100 µM, a GI50 ([6]; read-out: GI50) of over 100 µM and a GI50 [6, 13] of over 100 µM. The GI50 (SR; read-out: GI50) was 0.01 µM, the GI50 (SR; [13]) was 0.01 µM and the GI50 ([7]; read-out: GI50) was over 100 µM. It also gave a GI50 [7, 13] of over 100 µM, a GI50 (HL-60; read-out: GI50) of 0.2 µM and a GI50 (HL-60; [13]) of 0.234 µM. The GI50 ([8]; read-out: GI50) was over 100 µM, the GI50 [8, 13] was over 100 µM and the GI50 (RPMI-8226; read-out: GI50) was 23.4 µM. The GI50 (RPMI-8226; [13]) was 23.4 µM, the GI50 (Melanoma, 8 cell lines; read-out: GI50) was over 100 µM and the GI50 (Melanoma, 8 cell lines; [13]) was over 100 µM. The GI50 ([9]; read-out: GI50) was over 100 µM, the GI50 [9, 13] was over 100 µM and the “effect on the engraftment of normal specimens” value [10] was “little to no effect”. For the same compound, the IC50 (PKC) was over 100 µM, the “mBBr labeling (free thiol groups)” value [11] was “reduction in mBBr labeling is evident” and the “plasma membrane localized PKCα and β” value [12] was “decreases”. The IC50 (CDK1/cyclin B) was over 100 µM.

Reference: patent US9180118B2, “Thiadiazolidinone derivatives” (University of Rochester, priority 2006, dated 2015)
